Measurements: paper PMC8713996, “An anti-tuberculosis compound screen using a zebrafish infection model identifies an aspartyl-tRNA synthetase inhibitor” (Disease Models & Mechanisms, 2021)

Experiments:
[1] = tested on: Mtb-R-TBA161-C (aspS F526L); assay type: cell-based, Mycobacterium tuberculosis
[2] = tested on: Mtb carrying pMS2-aspSMmar or pMS2-aspSMmarR168G; assay type: cell-based, Mycobacterium tuberculosis

Q: O=c1c2cc(Cl)cc(Cl)c2oc2nc3n(c(=O)c12)CCCS3 [TBA161-C, 9,11-dichloro-3,4-dihydro-chromeno[2′,3′:4,5]pyrimido[2,1-b][1,3]thiazine-6,7-dione] was tested. Which “MIC90, TBA161-C-resistant Mtb strains” value [1] did it give?
A: exceeding 20 µM

Q: And the “MIC90 of resistant Mtb strains compared to the parental strain” value [1]?
A: more than tenfold higher

Q: What about the “Increase of MIC90, Mtb overexpressing wild-type aspS vs wild-type strain” value [2] of the same molecule?
A: fivefold

Q: And the “MIC90, Mtb overexpressing mutated aspS (aspSMmarR168G)” value [2]?
A: > 80 µM
